PubChem BioAssay AID2765 (Broad Institute, 2010)
The source made the active and inactive calls.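 How the source made its calls: active means half-maximal concentration for the rise in caspase light signal at or below ten times the top tested dose; inconclusive means flat fit between 30% and 70% activity, or unreliable curve fit; inactive means the rest.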

test system: MEF A1-2A-BIM cells, caspase 3/7 luminescence, 3 h; assay: inducers of caspase signal in A1-dependent MEFs – cell-based, luminescence, retest, A1 inhibitor project, dose response (AID 2765)

Structure (SMILES) | EC50
Cc1cc(C(F)(F)F)n2ncc(-c3cccc(Br)c3)c2n1 | > 35 µM (inactive)
Cc1[nH]c(=S)c(C#N)c(C)c1Cc1ccc(Cl)cc1Cl | > 35 µM (inactive)
CSc1nc(N)c(N=Nc2ccc([As](=O)(O)O)cc2)c(=O)[nH]1 | > 35 µM (inactive)
O=C(NC1CCCCC1)C(c1ccc(F)cc1)N(CCc1ccccc1)C(=O)CN1C(=O)c2ccccc2S1(=O)=O (stereo unspecified) | 24.1 µM
CCc1ccc(Nc2n[n+](-c3ccccc3)c(/C=C/c3ccccc3)s2)cc1 | 10.9 µM
C[C@H](CO)N1C[C@H](C)[C@@H](CN(C)C(=O)NC2CCCCC2)Oc2c(NS(=O)(=O)c3cn(C)cn3)cccc2C1=O | > 35 µM (inactive)
CCS(=O)(=O)c1ncc(Cl)c(C(=O)Nc2ccccc2OC)n1 | > 35 µM (inactive)
CNC(=O)Nc1ccc(Cn2cc(C(F)(F)F)ccc2=O)cc1 | > 35 µM (inactive)
Cc1noc(NS(=O)(=O)c2ccc(NC(=O)c3ccccc3NS(=O)(=O)c3ccc(F)cc3)cc2)c1C | > 35 µM (inactive)
Cc1cccc(NC(=S)N(Cc2cccc(Br)c2)CC2CCC(C(=O)O)CC2)c1 (stereo unspecified) | > 35 µM (inactive)
CC(C)N=c1scc(-c2ccco2)n1/N=C/c1ccc(O)c(O)c1 | > 35 µM (inactive)
CCOCCCNC(=O)c1ccc(N2CC3CC(C2)c2cccc(=O)n2C3)c(NC(=O)Nc2cccc(OC)c2)c1 (stereo unspecified) | > 35 µM (inactive)
C[C@@]12C(=O)OC(=O)[C@]1(C)C1CCC2O1 | > 35 µM (inactive)
Cc1ccc(C)c(NC(=O)COC(=O)c2cc3ccccc3oc2=O)c1 | > 35 µM (inactive)
CC1=NNC(=O)/C1=C\c1cn(-c2ccccc2)nc1-c1cccs1 | 15.1 µM
N#C/C(=C/c1ccc(N2CCOCC2)o1)c1ccc(Br)cc1 | > 35 µM (inactive)
O=C(CSc1cccc[n+]1[O-])NC1CCCCC1 | > 35 µM (inactive)
CCOC(=O)/C=c1\s/c(=C\c2ccc(C#N)cc2)c(=O)n1CC(=O)Nc1cccc(C)c1C | 3.13 µM
CCc1ccc(C2C3=C(CC(C)(C)CC3=O)Nc3c2c(=O)[nH]c2nc(C)nn32)cc1 (stereo unspecified) | > 35 µM (inactive)
Cc1ccccc1N=C1NC(=O)C(CO)(CO)S1 | > 35 µM (inactive)
CC(C)Oc1ccc(C(=O)OCC(=O)NC2CCCCCC2)cc1 | > 35 µM (inactive)
COc1ccc(C(=O)N/C(=C/c2cccs2)C(=O)NN)cc1OC | > 35 µM (inactive)

Structure (SMILES) | EC50
C=C1C(=O)O[C@@H]2C[C@@H](C)[C@@H]3C=CC(=O)[C@@]3(C)[C@@H](OC(C)=O)[C@H]12 | > 35 µM (inactive)
CC(=O)Nc1ccc(NC(=O)C(=O)NCC(c2ccco2)N2CCc3ccccc32)cc1 (stereo unspecified) | 32.5 µM
Cc1ccc(CSc2ncnc3c2cnn3-c2ccccc2)cc1 | > 35 µM (inactive)
CCC(Sc1nc2cc3c(cc2c(=O)n1Cc1ccco1)OCO3)C(=O)Nc1cccc(OC)c1 (stereo unspecified) | > 35 µM (inactive)
C=CC[C@@H](CC(=O)N[C@@H](CO)Cc1ccccc1)C(=O)N[C@H](COC(=O)[C@H](CC=C)CC(=O)OC(C)(C)C)Cc1ccccc1 | > 35 µM (inactive)
O=C(NCCO)C(=O)Nc1cc2c3c(c1)CCN3C(=O)CC2 | > 35 µM (inactive)
COc1ccc(NC(=O)C(NC(C)=O)C(=O)NCc2ccccc2Cl)cc1 (stereo unspecified) | > 35 µM (inactive)
Cc1ccc(NC(=O)CSc2nc3ccc(Nc4nc(N5CCOCC5)nc(N5CCOCC5)n4)cc3s2)cc1 | 14.9 µM
COC(=O)c1ccc(Cl)cc1NC(=O)/C=C/c1ccc(C)o1 | > 35 µM (inactive)
COc1ccc(CNC(=O)CN(Cc2ccc(Cl)cc2)S(=O)(=O)c2ccccc2)cc1 | > 35 µM (inactive)
O=C(NNc1cc(Br)c(O)c(Br)c1)c1ccccc1 | > 35 µM (inactive)
O=C(CCCOc1ccc(Cl)cc1Cl)Nc1ncccn1 | > 35 µM (inactive)
CCOC(=O)/C=c1\s/c(=C\c2ccc(C(=O)OC)cc2)c(=O)n1CC(=O)Nc1ccccc1 | > 35 µM (inactive)
Oc1ccc(/C=N/N2CCN(C3c4ccccc4-c4ccccc43)CC2)cc1O | > 35 µM (inactive)
CC(=O)N1CCN(C(=S)c2ccc([N+](=O)[O-])cc2)CC1 | > 35 µM (inactive)
CN(C)C=NC(=O)c1cc(C(=O)c2ccc(Cl)cc2Cl)c[nH]1 | > 35 µM (inactive)
Cc1ccc(C(=O)Nc2ccc(N3CCOCC3)nc2N2CCOCC2)cc1 | > 35 µM (inactive)
COc1ccc(-c2ccc3c(c2)S(=O)(=O)c2cccc(C(=O)NCc4cccc(OC(F)(F)F)c4)c2C3=O)cc1OC | 20.4 µM
NC(=O)c1ccc[n+](CC(=O)NCc2ccc(Cl)cc2)c1 | > 35 µM (inactive)
COc1ccc(/C=C2\SC(=O)N(CCC(=O)N(C)C3CCS(=O)(=O)C3)C2=O)cc1 (stereo unspecified) | > 35 µM (inactive)
O=C(CCl)N=c1sccn1Cc1ccccc1Cl | > 35 µM (inactive)
O=C(O)CCN1CCc2ccccc2C1c1ccncc1 (stereo unspecified) | > 35 µM (inactive)

Structure (SMILES) | EC50
O=C(O)c1ccccc1SCCS(=O)(=O)c1ccc(Cl)cc1Cl | > 35 µM (inactive)
CC(C)(C)[C@H](N)C(=O)N[C@H]1CCC2C3CC=C4C[C@@H](O)CC[C@]4(C)C3CC[C@@]21C (stereo partly specified) | > 35 µM (inactive)
COc1ccc(C(=O)Nc2cccc3c2CCCC3)cc1 | > 35 µM (inactive)
NS(=O)(=O)c1ccc(CCNC(=O)c2ccc3c(c2)OCCO3)cc1 | > 35 µM (inactive)
CN(C)CCCN(C(=O)c1cc2cc([N+](=O)[O-])ccc2s1)c1nc2cc3c(cc2s1)OCCO3 | > 35 µM (inactive)
O=C(O)COc1ccccc1/C=C1\C(=O)Nc2ccc(Br)cc21 | > 35 µM (inactive)
CCOC(=O)CS(=O)(=O)c1nc(-c2ccccc2)cc(C(F)(F)F)n1 | > 35 µM (inactive)
O=C(CCNc1n[nH]c(=O)[nH]c1=O)N/N=C/c1ccc(C(F)(F)F)cc1 | > 35 µM (inactive)
CCN1C(=O)/C(=C2\Sc3ccccc3N2CC)OC1=S | > 35 µM (inactive)
COc1ccc(-c2ccc3c(c2)S(=O)(=O)c2cccc(C(=O)NCCOc4ccccc4)c2C3=O)cc1OC | > 35 µM (inactive)
CS(=O)(=O)Nc1ccc(C2=NN(S(C)(=O)=O)C(c3ccccc3)C2)cc1 (stereo unspecified) | > 35 µM (inactive)
CC(C)(C)OC(=O)NCCc1nnc(S(=O)(=O)Cc2ccc(Cl)cc2Cl)o1 | > 35 µM (inactive)
CCOC(=O)/C(=C\c1cccnc1)C(=O)c1cc(C(C)=O)c(Nc2ccccc2)s1 | > 35 µM (inactive)
COc1cc(NC(=O)c2ccccc2)c(OC)cc1NC(=O)Cc1ccc(Br)cc1 | > 35 µM (inactive)
CN1C2CCC1/C(=C/c1ccccn1)C(=O)/C2=C\c1ccccn1 | > 35 µM (inactive)
CCOc1cc2c(cc1OCC)C(c1ccccc1)N(c1ccccc1)C(=O)C2 (stereo unspecified) | > 35 µM (inactive)
Cc1sc(NC(=O)CSC2=NCCS2)nc1-c1ccccc1 | > 35 µM (inactive)
CCOC(=O)c1ccc(-c2ccc(/C=N/NC(=O)CN(c3cccc(C)c3)S(C)(=O)=O)o2)cc1 | 24 µM
CC1CCN(CCCNC(=O)c2cn(C)c3ccc(S(=O)(=O)N4CCCC4)cc3c2=O)CC1 | > 35 µM (inactive)
O=C(Nc1ccc(Br)cc1C(=O)O)c1ccc2c(c1)C(=O)N(Cc1ccccc1)C2=O | > 35 µM (inactive)
COc1ccc(C2C(C(=O)c3ccc(C)o3)=C(O)C(=O)N2Cc2cccnc2)cc1OC (stereo unspecified) | > 35 µM (inactive)
CC(C)OC(=O)CN1C(=O)S/C(=C/c2ccc(N3CCCCC3)o2)C1=O | > 35 µM (inactive)
